One may read the stoichiometry N as the number of molecules, sites or subunits per partner or assembly.

The values below come from PMC12864786 (Nature Communications, 2026).

The target in one data set is T1, CHU (Cytophaga hutchinsonii, UniProt A0A6N4SMB5).
T1 sequence (A0A6N4SMB5 1-305): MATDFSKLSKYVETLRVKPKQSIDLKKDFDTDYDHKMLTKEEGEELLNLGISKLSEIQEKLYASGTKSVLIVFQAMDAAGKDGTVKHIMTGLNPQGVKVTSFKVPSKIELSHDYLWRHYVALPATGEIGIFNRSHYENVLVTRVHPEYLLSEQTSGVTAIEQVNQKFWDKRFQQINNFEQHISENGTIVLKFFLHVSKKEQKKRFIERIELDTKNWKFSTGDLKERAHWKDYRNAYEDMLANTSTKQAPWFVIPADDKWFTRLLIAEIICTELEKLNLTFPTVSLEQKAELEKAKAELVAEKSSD
Kind of data set: HPLC product distribution, end point […] min. Particulars: 4 mM nucleotide, PolyP-60 65 mM phosphate units, 10 mM Mn2+, 50 mM MOPS-NaOH pH 7.0, 37 °C. It counts as biochemical.

Another data set has as its target T2, ARE (Algibacter luteus, UniProt A0A1M6FUJ9).
T2 sequence (A0A1M6FUJ9 1-283): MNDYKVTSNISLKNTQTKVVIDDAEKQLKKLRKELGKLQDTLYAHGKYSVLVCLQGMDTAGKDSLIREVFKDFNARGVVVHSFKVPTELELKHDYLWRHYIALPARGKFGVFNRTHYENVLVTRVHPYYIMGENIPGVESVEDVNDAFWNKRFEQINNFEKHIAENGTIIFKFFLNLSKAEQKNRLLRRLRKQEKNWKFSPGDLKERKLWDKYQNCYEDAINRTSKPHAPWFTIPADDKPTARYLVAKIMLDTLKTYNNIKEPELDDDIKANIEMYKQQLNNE
As to the kind of experiment: HPLC product distribution, end point […] min. It counts as biochemical. Conditions: 4 mM nucleotide, PolyP 65 mM phosphate units, 10 mM Mn2+, 50 mM MOPS-NaOH pH 7.0, 37 °C.

The target in data set [1] is MBP-tagged Class III PPK2 enzyme from Pedobacter sp. (PED), full-length (Pedobacter sp.). Kind of data set: AUC.
The data set “AUC” deals with the molecule itself. As to the kind of experiment: AUC.

In the case of `Nc1ncnc2c1ncn2[C@@H]1O[C@H](COP(=O)(O)O)[C@@H](O)[C@H]1O` [AMP], the product distribution result at CHU is “Product distribution of MAN and CHU under the same conditions”. For the molecule `Nc1nc2c(ncn2[C@@H]2O[C@H](COP(=O)(O)O)[C@@H](O)[C@H]2O)c(=O)[nH]1` [GMP], the “Percent conversion to NTP” value on ARE was “PED and ARE exhibit weak activity against CMP, GDP, and GMP”. Also, the product distribution result at CHU is given as “CHU produces significant amounts of GPn (guanine nucleotides with four or more phosphate groups)”. For “MBP-tagged Class III PPK2 enzyme from Pedobacter sp. (PED), full-length”, in data set [1], the stoichiometry N was 2.

B1: MBP-tagged Class III PPK2 enzyme from Cytophaga hutchinsonii (CHU), full-length (enzyme, UniProt A0A6N4SMB5 1-305, looked up)
chain: MATDFSKLSKYVETLRVKPKQSIDLKKDFDTDYDHKMLTKEEGEELLNLGISKLSEIQEKLYASGTKSVLIVFQAMDAAGKDGTVKHIMTGLNPQGVKVTSFKVPSKIELSHDYLWRHYVALPATGEIGIFNRSHYENVLVTRVHPEYLLSEQTSGVTAIEQVNQKFWDKRFQQINNFEQHISENGTIVLKFFLHVSKKEQKKRFIERIELDTKNWKFSTGDLKERAHWKDYRNAYEDMLANTSTKQAPWFVIPADDKWFTRLLIAEIICTELEKLNLTFPTVSLEQKAELEKAKAELVAEKSSD
B1: the “stoichiometry N” value in the data set “AUC” is 2.
